pIC50: −log10 of the molar value.
Experiments:
[1] = molecular target: T1, recombinant renin in human plasma (Homo sapiens, UniProt P00797); assay: Inhibition of renin in human plasma; assay type: biochemical; conditions: human EDTA plasma, 37° C., 1 hour
T1 construct: purchased Proteos
T1 sequence (P00797 67-406): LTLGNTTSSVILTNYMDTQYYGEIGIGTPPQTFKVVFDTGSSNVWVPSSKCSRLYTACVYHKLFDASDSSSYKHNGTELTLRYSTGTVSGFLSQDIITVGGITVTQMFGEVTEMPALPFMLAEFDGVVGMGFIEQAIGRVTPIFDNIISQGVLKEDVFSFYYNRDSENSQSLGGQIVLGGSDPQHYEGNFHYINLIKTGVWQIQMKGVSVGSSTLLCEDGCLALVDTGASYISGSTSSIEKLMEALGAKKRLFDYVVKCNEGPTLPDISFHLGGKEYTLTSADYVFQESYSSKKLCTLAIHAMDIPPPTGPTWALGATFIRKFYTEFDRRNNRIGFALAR
Method: Human EDTA-collected plasma is rapidly thawed in warm water and centrifuged at 2900 g for 15 minutes at 4° C. The supernatant is collected and recombinant renin (Proteos) is added at a final concentration of 1 nM. The plasma is transferred to a Costar black 384 well plate (#3573). Renin inhibitors are added from a 17.5 fold concentrated DMSO solution and pre-incubated at 37° C. for 10 minutes. The internally-quench fluorescent peptide QXL520™-Lys-His-Pro-Phe-His-Leu-Val-Ile-His-Lys (5-FAM) (Anaspec), SEQ ID NO: 2, is diluted in 3M Tris pH 7.2, 200 mM EDTA and added to the plasma. The final concentrations are: 6 μM substrate, 342 mM Tris, 23 mM EDTA. The plate is incubated at 37° C. for 1 hour. The plate is read in a SpectraMax Gemini EM reader set at an excitation wavelength of 490 nm and an emission wavelength of 520 nm at times 0 and 1 hour. Background fluorescence at t=0 is subtracted from the measurement at t=1 hour. Inhibitory activity of the compounds is expressed as IC50.

Human recombinant renin = molecular target: T2, Human recombinant renin (Homo sapiens, UniProt P00797); assay: Inhibition of human recombinant renin (buffer); assay type: biochemical; conditions: 50 mM MOPS pH 7.4, 37° C., 3 hours
T2 construct: purchased Proteos
T2 sequence (P00797 67-406): T1 sequence (P00797 67-406)
Method: Human recombinant renin (Proteos) in 50 mM MOPS pH 7.4, 100 mM NaCl, 0.002% Tween 20 at a final concentration of […] is incubated with inhibitors from a 50 fold concentrated DMSO solution and 6 μM of an internally-quench fluorescent peptide: DNP-Lys-His-Pro-Phe-His-Leu-Val-Ile-His-D,L-Amp (SEQ ID NO: 1); Paschalidou K. et al., Biochem J., 2004, 382, 1031). The reactions take place in a Costar 384 well black plate (#3573) at 37° C. for 3 hours. Fluorescence is measured at times 0 and 3 hours with a SpectraMax Gemini EM reader set at an excitation wavelength of 328 nm and at an emission wavelength of 388 nm. Background fluorescence at t=0 is subtracted from the measurement at t=3 hours. Inhibitory activity of the compounds is expressed as IC 50.

Row | pIC50 [1] | pIC50 (Human recombinant renin) | SMILES
1 | 8.12 | 8.66 | COCCCc1cc(CN(C(=O)[C@@H]2CNCC[C@H]2c2cc(=O)n(C)c3cc(Cl)ccc23)C2CC2)cc(OCCOC)c1 (relative stereo) [Example 2, trans-4-(7-Chloro-1-methyl-2-oxo-1,2-dihydro-4-quinolinyl)-N-cyclopropyl-N-({3-{[2-(methyloxy)ethyl]oxy}-5-[3-(methyloxy)propyl]phenyl}methyl)-3-piperidinecarboxamide]
2 | 7.41 | 7.89 | COCCCc1cc(CN(C(=O)[C@@H]2CNCC[C@H]2c2cc(=O)n(C)c3ccccc23)C2CC2)cc(OCCOC)c1 (relative stereo) [Example 1, trans-N-Cyclopropyl-4-(1-methyl-2-oxo-1,2-dihydro-4-quinolinyl)-N-({3-{[2-(methyloxy)ethyl]oxy}-5-[3-(methyloxy)propyl]phenyl}methyl)-3-piperidinecarboxamide]

From patent publication US20110152316A1, “3,4-SUBSTITUTED PIPERIDINE DERIVATIVES AS RENIN INHIBITORS” (priority 2008, published 2011)
